Experimental data published in ChEMBL document CHEMBL1909046, “DrugMatrix in vitro pharmacology data”.

tested on: not listed separately; test: DRUGMATRIX: Calcium Channel Type L, Dihydropyridine radioligand binding (ligand: [3H] Nitrendipine); type: cell membranes, Rattus norvegicus, Wistar, Cerebral cortex, Membrane; details: Not Active = under 50% inhibition at 10 µM

| SMILES | IC50 | Ki |
| --- | --- | --- |
| CCCCC1=NC2(CCCC2)C(=O)N1Cc1ccc(-c2ccccc2-c2nnn[nH]2)cc1 [IRBESARTAN] | Not Active | Not Active |
| CN1CCC(=C2c3ccccc3CC(=O)c3sccc32)CC1 [KETOTIFEN] | Not Active | Not Active |
| N[C@@H](Cn1ccc(=O)c(O)c1)C(=O)O [L-MIMOSINE] | Not Active | Not Active |
| C[N+](C)(C)C[C@H](O)CC(=O)[O-] [LEVOCARNITINE] | Not Active | Not Active |
| C[C@H]1COc2c(N3CCN(C)CC3)c(F)cc3c(=O)c(C(=O)O)cn1c23.C[C@H]1COc2c(N3CCN(C)CC3)c(F)cc3c(=O)c(C(=O)O)cn1c23.O [LEVOFLOXACIN] | Not Active | Not Active |
| CCn1cc(C(=O)O)c(=O)c2cc(F)c(N3CCNC(C)C3)c(F)c21 (stereo not drawn) [LOMEFLOXACIN] | Not Active | Not Active |

molecular target: T1, Neutrophil elastase (Homo sapiens, UniProt P08246); type: tissue-based; details: not given;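 also: inhibition of neutrophil elastase enzyme activity, measured with a p-nitroanilide-linked peptide substrate; in other assays of this panel Not Active means under 50% inhibition at 10 µM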
T1 sequence (P08246 whole entry): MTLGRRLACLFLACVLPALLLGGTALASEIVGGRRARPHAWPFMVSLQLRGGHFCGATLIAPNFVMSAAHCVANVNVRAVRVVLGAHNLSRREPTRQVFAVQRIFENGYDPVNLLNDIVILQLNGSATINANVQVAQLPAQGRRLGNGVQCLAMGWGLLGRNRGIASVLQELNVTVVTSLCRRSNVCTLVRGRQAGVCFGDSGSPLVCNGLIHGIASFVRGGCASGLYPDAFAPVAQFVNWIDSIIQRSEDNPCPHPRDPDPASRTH

| SMILES | IC50 |
| --- | --- |
| CCCCC1=NC2(CCCC2)C(=O)N1Cc1ccc(-c2ccccc2-c2nnn[nH]2)cc1 [IRBESARTAN] | Not Active |
| CN1CCC(=C2c3ccccc3CC(=O)c3sccc32)CC1 [KETOTIFEN] | Not Active |
| N[C@@H](Cn1ccc(=O)c(O)c1)C(=O)O [L-MIMOSINE] | Not Active |
| C[N+](C)(C)C[C@H](O)CC(=O)[O-] [LEVOCARNITINE] | Not Active |
| C[C@H]1COc2c(N3CCN(C)CC3)c(F)cc3c(=O)c(C(=O)O)cn1c23.C[C@H]1COc2c(N3CCN(C)CC3)c(F)cc3c(=O)c(C(=O)O)cn1c23.O [LEVOFLOXACIN] | Not Active |
| CCn1cc(C(=O)O)c(=O)c2cc(F)c(N3CCNC(C)C3)c(F)c21 (stereo not drawn) [LOMEFLOXACIN] | Not Active |

molecular target: Sigma non-opioid intracellular receptor 1 (Homo sapiens, UniProt Q99720); test: DRUGMATRIX: Sigma1 radioligand binding (ligand: [3H] Haloperidol); type: cell membranes, Jurkat, Membrane; details: jurkat; Not Active = under 50% inhibition at 10 µM
Sequence (Q99720 whole entry): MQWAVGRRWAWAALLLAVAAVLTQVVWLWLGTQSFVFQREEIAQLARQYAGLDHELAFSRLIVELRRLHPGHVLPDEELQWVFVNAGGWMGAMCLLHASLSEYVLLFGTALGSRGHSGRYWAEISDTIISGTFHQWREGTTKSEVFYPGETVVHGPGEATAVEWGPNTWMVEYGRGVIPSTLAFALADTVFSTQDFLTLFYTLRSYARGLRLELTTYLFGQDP

| SMILES | IC50 |
| --- | --- |
| CCCCC1=NC2(CCCC2)C(=O)N1Cc1ccc(-c2ccccc2-c2nnn[nH]2)cc1 [IRBESARTAN] | Not Active |
| CN1CCC(=C2c3ccccc3CC(=O)c3sccc32)CC1 [KETOTIFEN] | Not Active |
| N[C@@H](Cn1ccc(=O)c(O)c1)C(=O)O [L-MIMOSINE] | Not Active |
| C[N+](C)(C)C[C@H](O)CC(=O)[O-] [LEVOCARNITINE] | Not Active |
| C[C@H]1COc2c(N3CCN(C)CC3)c(F)cc3c(=O)c(C(=O)O)cn1c23.C[C@H]1COc2c(N3CCN(C)CC3)c(F)cc3c(=O)c(C(=O)O)cn1c23.O [LEVOFLOXACIN] | Not Active |
| CCn1cc(C(=O)O)c(=O)c2cc(F)c(N3CCNC(C)C3)c(F)c21 (stereo not drawn) [LOMEFLOXACIN] | Not Active |

molecular target: C-C chemokine receptor type 5 (Homo sapiens, UniProt P51681); type: cell membranes, Membrane; details: hek293; also: in other assays of this panel Not Active means under 50% inhibition at 10 µM
Sequence (P51681 whole entry): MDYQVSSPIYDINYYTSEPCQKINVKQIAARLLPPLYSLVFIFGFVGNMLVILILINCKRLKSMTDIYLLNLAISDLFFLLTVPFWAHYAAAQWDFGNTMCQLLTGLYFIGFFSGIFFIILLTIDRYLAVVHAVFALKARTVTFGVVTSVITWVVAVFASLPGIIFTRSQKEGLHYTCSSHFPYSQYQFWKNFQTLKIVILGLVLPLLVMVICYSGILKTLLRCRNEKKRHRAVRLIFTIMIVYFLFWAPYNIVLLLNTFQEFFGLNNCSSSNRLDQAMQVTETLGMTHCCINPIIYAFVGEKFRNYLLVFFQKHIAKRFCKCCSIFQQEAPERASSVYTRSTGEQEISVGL

| SMILES | IC50 |
| --- | --- |
| CCCCC1=NC2(CCCC2)C(=O)N1Cc1ccc(-c2ccccc2-c2nnn[nH]2)cc1 [IRBESARTAN] | Not Active |
| CN1CCC(=C2c3ccccc3CC(=O)c3sccc32)CC1 [KETOTIFEN] | Not Active |
| N[C@@H](Cn1ccc(=O)c(O)c1)C(=O)O [L-MIMOSINE] | Not Active |
| C[N+](C)(C)C[C@H](O)CC(=O)[O-] [LEVOCARNITINE] | Not Active |
| C[C@H]1COc2c(N3CCN(C)CC3)c(F)cc3c(=O)c(C(=O)O)cn1c23.C[C@H]1COc2c(N3CCN(C)CC3)c(F)cc3c(=O)c(C(=O)O)cn1c23.O [LEVOFLOXACIN] | Not Active |
| CCn1cc(C(=O)O)c(=O)c2cc(F)c(N3CCNC(C)C3)c(F)c21 (stereo not drawn) [LOMEFLOXACIN] | Not Active |

molecular target: T2, Neuropeptide Y receptor type 2 (Homo sapiens, UniProt P49146); type: cell membranes, Membrane; details: kan-ts; also: in other assays of this panel Not Active means under 50% inhibition at 10 µM
T2 sequence (P49146 whole entry): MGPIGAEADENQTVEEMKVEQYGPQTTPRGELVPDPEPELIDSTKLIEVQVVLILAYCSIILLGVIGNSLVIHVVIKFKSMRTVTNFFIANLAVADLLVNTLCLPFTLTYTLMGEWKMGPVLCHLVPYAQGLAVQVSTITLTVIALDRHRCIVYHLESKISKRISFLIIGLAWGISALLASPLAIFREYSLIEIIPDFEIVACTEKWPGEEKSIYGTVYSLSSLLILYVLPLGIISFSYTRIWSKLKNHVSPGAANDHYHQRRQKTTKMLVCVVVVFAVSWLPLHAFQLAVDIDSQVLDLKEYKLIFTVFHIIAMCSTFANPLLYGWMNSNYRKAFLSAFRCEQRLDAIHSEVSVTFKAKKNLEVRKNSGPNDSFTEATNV

| SMILES | IC50 |
| --- | --- |
| CCCCC1=NC2(CCCC2)C(=O)N1Cc1ccc(-c2ccccc2-c2nnn[nH]2)cc1 [IRBESARTAN] | Not Active |
| CN1CCC(=C2c3ccccc3CC(=O)c3sccc32)CC1 [KETOTIFEN] | Not Active |
| N[C@@H](Cn1ccc(=O)c(O)c1)C(=O)O [L-MIMOSINE] | Not Active |
| C[N+](C)(C)C[C@H](O)CC(=O)[O-] [LEVOCARNITINE] | Not Active |
| C[C@H]1COc2c(N3CCN(C)CC3)c(F)cc3c(=O)c(C(=O)O)cn1c23.C[C@H]1COc2c(N3CCN(C)CC3)c(F)cc3c(=O)c(C(=O)O)cn1c23.O [LEVOFLOXACIN] | Not Active |
| CCn1cc(C(=O)O)c(=O)c2cc(F)c(N3CCNC(C)C3)c(F)c21 (stereo not drawn) [LOMEFLOXACIN] | Not Active |

molecular target: T3, C-X-C chemokine receptor type 2 (Homo sapiens, UniProt P25025); type: cell membranes, Membrane; details: cho-k1; also: in other assays of this panel Not Active means under 50% inhibition at 10 µM
T3 sequence (P25025 whole entry): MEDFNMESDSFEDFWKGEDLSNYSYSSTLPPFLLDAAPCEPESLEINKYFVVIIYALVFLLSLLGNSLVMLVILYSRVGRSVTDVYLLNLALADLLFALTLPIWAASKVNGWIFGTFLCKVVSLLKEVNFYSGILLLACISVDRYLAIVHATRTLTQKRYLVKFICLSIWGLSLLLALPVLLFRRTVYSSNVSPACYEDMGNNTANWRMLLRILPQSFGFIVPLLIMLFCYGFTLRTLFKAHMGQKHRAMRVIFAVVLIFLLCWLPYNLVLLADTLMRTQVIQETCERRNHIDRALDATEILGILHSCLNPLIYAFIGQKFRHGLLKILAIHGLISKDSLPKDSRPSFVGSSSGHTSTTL

| SMILES | IC50 |
| --- | --- |
| CCCCC1=NC2(CCCC2)C(=O)N1Cc1ccc(-c2ccccc2-c2nnn[nH]2)cc1 [IRBESARTAN] | Not Active |
| CN1CCC(=C2c3ccccc3CC(=O)c3sccc32)CC1 [KETOTIFEN] | Not Active |
| N[C@@H](Cn1ccc(=O)c(O)c1)C(=O)O [L-MIMOSINE] | Not Active |
| C[N+](C)(C)C[C@H](O)CC(=O)[O-] [LEVOCARNITINE] | Not Active |
| C[C@H]1COc2c(N3CCN(C)CC3)c(F)cc3c(=O)c(C(=O)O)cn1c23.C[C@H]1COc2c(N3CCN(C)CC3)c(F)cc3c(=O)c(C(=O)O)cn1c23.O [LEVOFLOXACIN] | Not Active |
| CCn1cc(C(=O)O)c(=O)c2cc(F)c(N3CCNC(C)C3)c(F)c21 (stereo not drawn) [LOMEFLOXACIN] | Not Active |

molecular target: T4, Nitric oxide synthase, inducible (Mus musculus, UniProt P29477); parameters: species or system Escherichia coli; details: not given
T4 sequence (P29477 whole entry): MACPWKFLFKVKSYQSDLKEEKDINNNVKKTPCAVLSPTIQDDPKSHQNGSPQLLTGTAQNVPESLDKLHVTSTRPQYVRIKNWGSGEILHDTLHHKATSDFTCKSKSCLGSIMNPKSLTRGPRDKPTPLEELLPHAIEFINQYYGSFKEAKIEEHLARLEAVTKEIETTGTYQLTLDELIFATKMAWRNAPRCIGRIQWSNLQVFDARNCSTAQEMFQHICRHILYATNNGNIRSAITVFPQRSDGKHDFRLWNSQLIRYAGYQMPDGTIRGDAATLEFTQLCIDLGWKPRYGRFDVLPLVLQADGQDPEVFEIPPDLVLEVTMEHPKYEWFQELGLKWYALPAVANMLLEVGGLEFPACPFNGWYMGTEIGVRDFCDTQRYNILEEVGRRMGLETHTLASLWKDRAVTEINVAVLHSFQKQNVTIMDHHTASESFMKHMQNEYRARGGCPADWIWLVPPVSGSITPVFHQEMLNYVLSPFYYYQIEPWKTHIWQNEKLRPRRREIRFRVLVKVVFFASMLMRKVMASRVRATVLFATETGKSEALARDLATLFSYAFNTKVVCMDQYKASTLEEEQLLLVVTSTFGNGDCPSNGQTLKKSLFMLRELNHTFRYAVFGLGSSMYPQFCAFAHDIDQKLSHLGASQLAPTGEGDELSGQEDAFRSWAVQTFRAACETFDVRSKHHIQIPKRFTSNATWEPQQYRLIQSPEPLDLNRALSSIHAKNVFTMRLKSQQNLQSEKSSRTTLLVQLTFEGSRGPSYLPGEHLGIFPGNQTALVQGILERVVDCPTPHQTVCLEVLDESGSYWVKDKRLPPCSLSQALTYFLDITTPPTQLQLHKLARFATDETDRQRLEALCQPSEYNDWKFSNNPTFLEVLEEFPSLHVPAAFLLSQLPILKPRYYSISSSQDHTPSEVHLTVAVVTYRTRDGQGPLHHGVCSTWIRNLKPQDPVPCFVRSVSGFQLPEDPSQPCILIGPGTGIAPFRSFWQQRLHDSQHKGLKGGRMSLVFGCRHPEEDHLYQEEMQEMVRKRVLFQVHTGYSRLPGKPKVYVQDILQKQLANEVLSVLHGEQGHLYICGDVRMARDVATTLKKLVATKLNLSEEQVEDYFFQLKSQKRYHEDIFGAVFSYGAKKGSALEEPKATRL

| SMILES | IC50 |
| --- | --- |
| CCCCC1=NC2(CCCC2)C(=O)N1Cc1ccc(-c2ccccc2-c2nnn[nH]2)cc1 [IRBESARTAN] | Not Active |
| CN1CCC(=C2c3ccccc3CC(=O)c3sccc32)CC1 [KETOTIFEN] | Not Active |
| N[C@@H](Cn1ccc(=O)c(O)c1)C(=O)O [L-MIMOSINE] | Not Active |
| C[N+](C)(C)C[C@H](O)CC(=O)[O-] [LEVOCARNITINE] | Not Active |
| C[C@H]1COc2c(N3CCN(C)CC3)c(F)cc3c(=O)c(C(=O)O)cn1c23.C[C@H]1COc2c(N3CCN(C)CC3)c(F)cc3c(=O)c(C(=O)O)cn1c23.O [LEVOFLOXACIN] | Not Active |
| CCn1cc(C(=O)O)c(=O)c2cc(F)c(N3CCNC(C)C3)c(F)c21 (stereo not drawn) [LOMEFLOXACIN] | Not Active |
